Test results: patent US10570412B2, “Method of increasing resistance against soybean rust in transgenic plants by increasing the scopoletin content” (BASF PLANT SCIENCE COMPANY GMBH, priority 2015, dated 2020)
“Also recorded” adds a separate entry of the source.

Experiments:
Arabidopsis = assay: Phytotoxic effect of scopoletin in Arabidopsis; assay type: in vivo; settings: Arabidopsis plants treated with 1 mM scopoletin
Description: For pre-treatment experiments Arabidopsis plants were sprayed with—1 mM scopoletin (solved in H2O, 0.01% Tween-20); incubated for 6 h at short day conditions and subsequently inoculated with 1 mg/ml P. pachyrhizi uredospores. For co-treatment experiments spores of Phakopsora pachyrhizi were solved in 0.01% Tween-20 supplemented with 1 mM scopoletin. Following inoculation plants were covered with moistened plastic domes to ensure high humidity and incubated at short day conditions (see above). 24 h later plastic domes were removed and plants incubated at the same conditions for another 24 h. Leaves were harvested 2 dpi and destained on tissue soaked with a saturated (2.5 g/ml) chloralhydrate solution. Germination and penetration on destained leaves was determined by quantitative microscopic analysis.

Phakopsora pachyrhizi [1] = assay: In vivo spore germination test on Arabidopsis leaves; set-up: species or system Phakopsora pachyrhizi on Arabidopsis thaliana; settings: 1 mM scopoletin, assessed 48 h after infection
Fusarium graminearum = assay type: cell-based; settings: 1 mM scopoletin in PDA, compared with PDA+methanol
Phakopsora pachyrhizi [2] = assay: Soybean rust diseased leaf area on scopoletin-treated soybean plants; assay type: in vivo, Phakopsora pachyrhizi on soybean
soybean = assay: Phytotoxic effect of scopoletin in soybean; settings: soybean plants treated with scopoletin
Phakopsora pachyrhizi [3] = assay: In vitro germination test of Phakopsora pachyrhizi spores on glass slides; assay type: cell-based; settings: 6 h

**Q.** COc1cc2ccc(=O)oc2cc1O [scopoletin] was tested. Which “phytotoxic effect leading to pleiotropic effects” value (Arabidopsis) did it give?
**A.** never observed any phytotoxic effect

**Q.** And the “germination of Phakopsora pachyrhizi spores on Arabidopsis leaves” value (from here on “germination … on Arabidopsis leaves”) (Phakopsora pachyrhizi [1]; co-application with inoculation)?
**A.** drastically reduced formation of germinated spores

**Q.** And the “germination … on Arabidopsis leaves” value (Phakopsora pachyrhizi [1]; co-application with inoculation, listed as Scopoletin)?
**A.** strongly inhibited

**Q.** What about the “germination … on Arabidopsis leaves” value (Phakopsora pachyrhizi [1]; pre-treatment 6 h before inoculation) of the same compound?
**A.** drastically reduced formation of germinated spores

**Q.** What about the “germination … on Arabidopsis leaves” value (Phakopsora pachyrhizi [1]; pre-treatment 6 h before inoculation, listed as Scopoletin) of the same compound?
**A.** strongly inhibited

**Q.** What about the “reduction of the Fusarium graminearum growth rate per day” value (Fusarium graminearum) of the same compound?
**A.** 61%

**Q.** What about the “diseased leaf area caused by Phakopsora pachyrhizi infection” value (“diseased leaf area caused” for short) (Phakopsora pachyrhizi [2]; soy plants, 1 mM scopoletin, co-application, primary, first and second trifoliate leaves, 12 dpi) of the same compound?
**A.** drastically reduced formation of infected leaf area; also recorded: strongly reduced

**Q.** What about the “diseased leaf area caused” value (Phakopsora pachyrhizi [2]; soy plants, 1 mM scopoletin, pre-treatment 6 h before inoculation, primary, first and second trifoliate leaves, 12 dpi) of the same compound?
**A.** drastically reduced formation of infected leaf area; also recorded: strongly reduced

**Q.** And the “diseased leaf area caused” value (Phakopsora pachyrhizi [2]; soybean leaves, co-application of 10 μM, 100 μM or 1 mM scopoletin, dose dependent)?
**A.** strongly reduced in a dose dependent manner

**Q.** What about the “phytotoxic effect leading to pleiotropic effects” value (soybean) of the same compound?
**A.** never observed

**Q.** And the “germination and appressorium formation of Phakopsora pachyrhizi spores” value (Phakopsora pachyrhizi [3]; 10 μM, 100 μM, 500 μM and 1 mM scopoletin in water, glass slides, dose dependent)?
**A.** decreases the germination and appressoria formation in a dose dependent manner; also recorded: strongly inhibited

**Q.** What about the spore germination in-vitro (Phakopsora pachyrhizi [3]; 1 mM scopoletin) of the same compound?
**A.** completely abolishes spore germination
